BigSolDB 2.1

NC(=O)c1c(F)c(F)c(F)c(F)c1F
in water
Settings	solubility (mole fraction)
291.8 K	0.00018
297.5 K	0.00026
303.3 K	0.00034
310.3 K	0.0006

O=C(Nc1c(F)c(F)c(F)c(F)c1F)C(=O)Nc1c(F)c(F)c(F)c(F)c1F
Settings	solubility (mole fraction)
in 2-butanone, 284.2 K	0.00793
in 2-butanone, 287.1 K	0.00854
in 2-butanone, 289.4 K	0.00897
in 2-butanone, 293.4 K	0.00984
in 2-butanone, 303.3 K	0.0126
in 2-butanone, 314.7 K	0.0168
in 2-butanone, 323.9 K	0.0209
in 2-butanone, 327.2 K	0.023
in 2-butanone, 331.1 K	0.025
in 2-butanone, 333.4 K	0.0271
in 2-butanone, 336.9 K	0.029
in ethyl acetate, 281.1 K	0.00822
in ethyl acetate, 285.6 K	0.00934
in ethyl acetate, 291.9 K	0.0105
in ethyl acetate, 293.5 K	0.0116
in ethyl acetate, 303.7 K	0.0138
in ethyl acetate, 310.9 K	0.017
in ethyl acetate, 321.4 K	0.0206
in ethyl acetate, 325.1 K	0.0229
in ethyl acetate, 326.7 K	0.0251
in ethyl acetate, 332.2 K	0.0274
in ethyl acetate, 334.9 K	0.0295

O=c1[nH]c(=O)n([C@H]2C[C@H](O)[C@@H](CO)O2)cc1I
in water
Settings	solubility (mole fraction)
302.2 K	0.00013
312.6 K	0.00021
317.8 K	0.00026
321.9 K	0.00039
323 K	0.00027
326.2 K	0.00041
332 K	0.00051
336 K	0.00047
343.1 K	0.00076
348.6 K	0.00089
349.8 K	0.00102
